In EP1976513B1 (priority 2006, dated 2007):
Where “and” joins values, the source holds several entries; their conditions need not be identical. Identical values can stand only once. Like-named read-outs stand apart in the source and are kept apart here.

Columns and labels:
[1] = target: human serotonin reuptake transporter (Homo sapiens, UniProt P31645); test: cell-based; conditions: recombinant human serotonin transporter (SERT); read-out: Human IC50 (nM) hSERT
[2] = target: T1, human dopamine reuptake transporter (Homo sapiens, UniProt Q01959); test: cell-based; conditions: recombinant human dopamine transporter (DAT); read-out: Human IC50 (nM) hDAT
T1 construct: expressed in transfected cells; host or cells: CHO-K1 or HEK293
T1 sequence (Q01959 whole entry): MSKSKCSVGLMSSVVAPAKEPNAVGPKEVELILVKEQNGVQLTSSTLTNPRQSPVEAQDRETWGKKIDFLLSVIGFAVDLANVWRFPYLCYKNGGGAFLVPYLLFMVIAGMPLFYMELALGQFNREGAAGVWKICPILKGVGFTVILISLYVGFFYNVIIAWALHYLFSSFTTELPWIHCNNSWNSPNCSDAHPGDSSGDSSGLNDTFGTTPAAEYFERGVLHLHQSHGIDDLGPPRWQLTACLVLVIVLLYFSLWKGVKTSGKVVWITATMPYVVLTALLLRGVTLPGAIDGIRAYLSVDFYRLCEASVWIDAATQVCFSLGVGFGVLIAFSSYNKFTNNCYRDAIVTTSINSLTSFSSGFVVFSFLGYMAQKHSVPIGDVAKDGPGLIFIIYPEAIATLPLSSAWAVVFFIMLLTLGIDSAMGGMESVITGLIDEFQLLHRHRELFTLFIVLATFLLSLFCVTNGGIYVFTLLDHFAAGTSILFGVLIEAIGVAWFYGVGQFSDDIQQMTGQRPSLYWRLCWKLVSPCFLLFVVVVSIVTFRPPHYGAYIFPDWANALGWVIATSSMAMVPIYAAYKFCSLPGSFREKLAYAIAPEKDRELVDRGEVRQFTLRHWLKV

[3] = target: human norepinephrine reuptake transporter (Homo sapiens, UniProt P23975); test: cell-based; conditions: recombinant human norepinephrine transporter (NET); read-out: Human IC50 (nM) hNET
Sequence of human norepinephrine reuptake transporter (P23975 whole entry): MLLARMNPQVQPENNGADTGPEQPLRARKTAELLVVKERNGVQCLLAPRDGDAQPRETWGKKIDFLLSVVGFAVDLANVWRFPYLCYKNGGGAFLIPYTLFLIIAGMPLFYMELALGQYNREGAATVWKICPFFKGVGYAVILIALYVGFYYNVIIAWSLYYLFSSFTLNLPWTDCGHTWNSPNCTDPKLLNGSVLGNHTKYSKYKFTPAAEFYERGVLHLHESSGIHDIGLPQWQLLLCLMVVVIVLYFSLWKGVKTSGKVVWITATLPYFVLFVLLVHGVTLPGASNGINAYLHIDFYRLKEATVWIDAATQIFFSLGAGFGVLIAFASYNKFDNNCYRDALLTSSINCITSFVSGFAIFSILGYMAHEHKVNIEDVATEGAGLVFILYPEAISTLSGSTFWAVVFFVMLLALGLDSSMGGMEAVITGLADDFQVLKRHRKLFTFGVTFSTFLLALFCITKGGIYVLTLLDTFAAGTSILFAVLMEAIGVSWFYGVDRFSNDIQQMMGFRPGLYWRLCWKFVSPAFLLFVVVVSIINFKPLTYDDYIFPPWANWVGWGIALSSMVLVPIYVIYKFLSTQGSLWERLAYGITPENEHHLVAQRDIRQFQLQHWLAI

[4] = target: T2, dopamine transporter (Rattus norvegicus, UniProt P23977); test: biochemical; conditions: rat synaptosomes, dopamine transporter (DAT)
T2 construct: synaptosomes isolated in a 0.32 M sucrose buffer from a male Wistar rat striatum; from tissue; host or cells: male Wistar rat striatum synaptosomes
T2 sequence (P23977 whole entry): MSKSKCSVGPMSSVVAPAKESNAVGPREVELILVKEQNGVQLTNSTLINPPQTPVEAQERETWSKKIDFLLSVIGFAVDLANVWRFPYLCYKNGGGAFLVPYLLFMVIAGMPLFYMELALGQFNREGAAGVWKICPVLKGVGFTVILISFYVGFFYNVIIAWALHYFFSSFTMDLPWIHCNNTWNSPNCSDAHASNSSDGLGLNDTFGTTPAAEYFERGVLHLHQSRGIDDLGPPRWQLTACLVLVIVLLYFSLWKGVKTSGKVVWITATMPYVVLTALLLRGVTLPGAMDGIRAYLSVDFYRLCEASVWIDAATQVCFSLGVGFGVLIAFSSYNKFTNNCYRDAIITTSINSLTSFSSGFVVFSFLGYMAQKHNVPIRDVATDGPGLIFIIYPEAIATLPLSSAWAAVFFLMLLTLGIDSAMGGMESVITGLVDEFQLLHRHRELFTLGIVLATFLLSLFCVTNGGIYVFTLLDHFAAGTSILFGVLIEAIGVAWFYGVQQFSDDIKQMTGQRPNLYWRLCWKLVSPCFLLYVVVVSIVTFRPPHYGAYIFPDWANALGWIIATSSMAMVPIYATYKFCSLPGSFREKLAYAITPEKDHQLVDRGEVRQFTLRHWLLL

[5] = target: T3, serotonin transporter (Rattus norvegicus, UniProt P31652); test: biochemical; conditions: rat synaptosomes, serotonin transporter (SERT)
T3 construct: synaptosomes isolated in a 0.32M sucrose buffer from a male Wistar rat cortex; from tissue; host or cells: male Wistar rat cortex synaptosomes
T3 sequence (P31652 whole entry): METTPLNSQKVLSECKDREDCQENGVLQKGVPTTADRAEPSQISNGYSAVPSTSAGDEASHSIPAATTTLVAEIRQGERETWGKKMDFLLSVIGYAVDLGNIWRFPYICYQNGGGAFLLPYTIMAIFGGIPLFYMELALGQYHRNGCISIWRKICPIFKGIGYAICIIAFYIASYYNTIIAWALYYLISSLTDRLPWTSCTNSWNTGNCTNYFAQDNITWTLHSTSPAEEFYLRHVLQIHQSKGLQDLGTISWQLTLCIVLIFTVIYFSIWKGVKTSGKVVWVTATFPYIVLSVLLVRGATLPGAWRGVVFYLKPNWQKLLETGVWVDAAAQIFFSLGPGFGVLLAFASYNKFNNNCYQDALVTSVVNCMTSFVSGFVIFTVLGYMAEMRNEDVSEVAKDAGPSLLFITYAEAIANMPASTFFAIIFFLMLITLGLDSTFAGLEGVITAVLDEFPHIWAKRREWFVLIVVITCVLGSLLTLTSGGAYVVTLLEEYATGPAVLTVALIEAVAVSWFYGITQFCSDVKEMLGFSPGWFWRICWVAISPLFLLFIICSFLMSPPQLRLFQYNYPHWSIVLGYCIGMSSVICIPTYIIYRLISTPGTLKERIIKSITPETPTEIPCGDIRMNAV

[6] = target: T4, DA Transporter (DAT) Sites in Mouse Brain (Mus musculus, UniProt Q61327); test: Ex vivo [3H] WIN 35428 binding after oral dosing; set-up: species or system C57BL/6 mice; conditions: for % Transporter Occupancy, DAT: 60 minutes after treatment, vs vehicle; for Mean Specific Binding (dpm) ± S.E.M., DAT: mice sacrificed 60 minutes after treatment, striatum
T4 construct: Striatum was used to determine occupancy of DA transporter sites; from tissue; host or cells: C57BL/6 mouse striatum homogenate
T4 sequence (Q61327 whole entry): as the sequence (P23977 whole entry) above, with S21P, A57V, A194S, H600R, L619V counted along it

[7] = target: Norepinephrine Transporter (NET) Sites in Mouse Brain (Mus musculus, UniProt O55192); conditions: PO; for % Transporter Occupancy, NET: 60 minutes after treatment, vs vehicle; for Mean Specific Binding (dpm) ± S.E.M., NET: mice sacrificed 60 minutes after treatment, cortex
Sequence of Norepinephrine Transporter (NET) Sites in Mouse Brain (O55192 whole entry): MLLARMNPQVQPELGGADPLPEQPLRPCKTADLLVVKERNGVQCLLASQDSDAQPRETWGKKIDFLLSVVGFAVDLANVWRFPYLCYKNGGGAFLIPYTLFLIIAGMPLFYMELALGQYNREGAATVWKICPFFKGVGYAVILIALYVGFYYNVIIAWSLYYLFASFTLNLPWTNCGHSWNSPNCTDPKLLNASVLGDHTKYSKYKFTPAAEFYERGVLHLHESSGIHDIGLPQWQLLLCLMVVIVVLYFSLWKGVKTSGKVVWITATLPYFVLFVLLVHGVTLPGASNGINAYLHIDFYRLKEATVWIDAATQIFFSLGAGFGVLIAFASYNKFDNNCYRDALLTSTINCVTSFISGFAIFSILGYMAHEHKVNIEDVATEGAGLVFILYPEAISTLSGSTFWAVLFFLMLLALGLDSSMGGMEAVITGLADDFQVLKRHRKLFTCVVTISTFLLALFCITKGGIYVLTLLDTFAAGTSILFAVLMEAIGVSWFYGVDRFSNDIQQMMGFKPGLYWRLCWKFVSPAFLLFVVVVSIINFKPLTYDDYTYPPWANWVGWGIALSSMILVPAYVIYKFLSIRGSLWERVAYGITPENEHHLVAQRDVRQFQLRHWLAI

[8] = test system: mice; test: Mouse locomotor activity; format: in vivo; conditions: PO
Protocol: (§1) In order to ensure effects of the compounds on immobility time were not related to a general stimulant effect on baseline motor activity, locomotor activity was assessed using photocell monitored cages (Med-Associates Inc.). Each test chamber was equipped with infrared photocell beams to measure movement of the animals. Horizontal and vertical activity were measured
(§2) Rats or mice were pretreated with vehicle or test compounds and placed back in home cage, following which they will be individually placed in locomotor cages and activity was monitored in 5 minute intervals for up to 60 min.
(§3) Data were analyzed by one way analysis of variance (ANOVA) followed by post-hoc comparisons where appropriate. An effect was considered significant if p < 0.05. Data are represented as the mean and standard error to the mean (s.e.m).

[9] = target: T5, 5-HT Transporter (SERT) Sites in Mouse Brain (Mus musculus, UniProt Q60857); test: Ex vivo [3H] citalopram binding after oral dosing; set-up: species or system C57BL/6 mice; conditions: for % Transporter Occupancy, SERT: 60 minutes after treatment, vs vehicle; for Mean Specific Binding (dpm) ± S.E.M., SERT: mice sacrificed 60 minutes after treatment, cortex
T5 construct: Whole brains were removed and cortex and striata dissected out; from tissue; host or cells: C57BL/6 mouse frontal cortex homogenate
T5 sequence (Q60857 whole entry): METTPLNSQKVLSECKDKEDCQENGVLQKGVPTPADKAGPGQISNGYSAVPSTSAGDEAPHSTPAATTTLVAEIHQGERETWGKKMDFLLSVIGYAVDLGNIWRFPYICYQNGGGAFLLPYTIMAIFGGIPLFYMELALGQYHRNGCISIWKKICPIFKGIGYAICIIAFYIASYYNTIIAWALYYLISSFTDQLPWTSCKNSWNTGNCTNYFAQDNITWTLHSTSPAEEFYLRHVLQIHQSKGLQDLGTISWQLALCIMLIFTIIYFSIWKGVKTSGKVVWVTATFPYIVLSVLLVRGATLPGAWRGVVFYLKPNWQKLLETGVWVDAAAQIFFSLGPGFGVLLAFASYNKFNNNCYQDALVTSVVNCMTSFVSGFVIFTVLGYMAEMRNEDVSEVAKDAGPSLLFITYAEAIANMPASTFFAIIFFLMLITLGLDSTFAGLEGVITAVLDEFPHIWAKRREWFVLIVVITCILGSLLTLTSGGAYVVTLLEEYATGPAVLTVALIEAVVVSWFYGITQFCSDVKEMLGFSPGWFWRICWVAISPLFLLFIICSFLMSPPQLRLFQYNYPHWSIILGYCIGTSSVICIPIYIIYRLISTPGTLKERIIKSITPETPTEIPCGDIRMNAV

[10] = test system: Rats; test: Rat locomotor activity; format: in vivo; conditions: PO
Protocol: as §1, §2, §3

[11] = test system: Rats; test: Rat forced swim test; format: in vivo; conditions: PO, 24 hours and 30-60 minutes before the 5 minute test
[12] = test system: mice; test: Mouse tail suspension test; format: in vivo; conditions: PO, 30-60 minutes before the test, 5 minutes recording

Sequence of human serotonin reuptake transporter (P31645 whole entry): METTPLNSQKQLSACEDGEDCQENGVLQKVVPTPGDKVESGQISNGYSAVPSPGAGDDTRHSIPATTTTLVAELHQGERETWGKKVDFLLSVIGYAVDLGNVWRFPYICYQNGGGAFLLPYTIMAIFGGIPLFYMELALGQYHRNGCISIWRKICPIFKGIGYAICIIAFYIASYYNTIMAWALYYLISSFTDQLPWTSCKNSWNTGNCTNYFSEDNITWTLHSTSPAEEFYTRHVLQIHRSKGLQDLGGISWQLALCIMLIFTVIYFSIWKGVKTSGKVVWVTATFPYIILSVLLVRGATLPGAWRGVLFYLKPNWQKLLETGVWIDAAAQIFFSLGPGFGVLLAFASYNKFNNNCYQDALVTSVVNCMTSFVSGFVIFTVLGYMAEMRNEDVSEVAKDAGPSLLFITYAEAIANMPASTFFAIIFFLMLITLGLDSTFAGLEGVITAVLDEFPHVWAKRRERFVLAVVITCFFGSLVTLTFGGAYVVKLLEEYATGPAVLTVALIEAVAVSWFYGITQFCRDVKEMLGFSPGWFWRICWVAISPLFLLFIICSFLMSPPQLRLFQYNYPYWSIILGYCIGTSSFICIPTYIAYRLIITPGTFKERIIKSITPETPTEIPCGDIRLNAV

## CC1(O)CCC(CN)(c2ccc(OC(F)(F)F)cc2)CC1 (stereo not shown) [Compound 219, 4-(aminomethyl)-1-methyl-4-(4-(trifluoromethoxy)phenyl)-cyclohexanol]
[1]
  IC50: 269 nM
[2]
  IC50: > 10000 nM
[3]
  IC50: > 10000 nM

## CN(C)CC1(c2ccc(Cl)c(Cl)c2)CCC(F)CC1 (stereo not shown) [Compound 254, 1-(1-(3,4-dichlorophenyl)-4-fluorocyclohexyl)-N,N-dimethylmethanamine]
[1]
  IC50: 294 nM
[2]
  IC50: < 1 nM
[4]; Rat IC50 (nM) rDAT
  IC50: 100 nM

## CN(C)CC1(c2ccc(Cl)c(Cl)c2)CCC(C)(O)CC1 (stereo not shown) [Compound 277, 4-(3,4-dichlorophenyl)-4-((dimethylamino)methyl)-1-methylcyclohexanol]
[1]
  IC50: 34 nM
[5]; Rat IC50 (nM) rSERT
  IC50: 42 nM
[6]; 1 mg/kg
  % Transporter Occupancy, DAT: 17%
  Mean Specific Binding (dpm) ± S.E.M., DAT: 35827 ± 2302 dpm
[6]; 3 mg/kg
  % Transporter Occupancy, DAT: 21%
  Mean Specific Binding (dpm) ± S.E.M., DAT: 34136 ± 4104 dpm
[6]; 10 mg/kg
  % Transporter Occupancy, DAT: 23%
  Mean Specific Binding (dpm) ± S.E.M., DAT: 33230 ± 2807 dpm
[6]; 30 mg/kg
  % Transporter Occupancy, DAT: 26%
  Mean Specific Binding (dpm) ± S.E.M., DAT: 31743 ± 4406 dpm
[7]; 1 mg/kg
  % Transporter Occupancy, NET: 6%
  Mean Specific Binding (dpm) ± S.E.M., NET: 950 ± 46 dpm
[7]; 3 mg/kg
  % Transporter Occupancy, NET: 18%
  Mean Specific Binding (dpm) ± S.E.M., NET: 824 ± 30 dpm
[7]; 10 mg/kg
  % Transporter Occupancy, NET: 47%
  Mean Specific Binding (dpm) ± S.E.M., NET: 533 ± 25 dpm
[7]; 30 mg/kg
  % Transporter Occupancy, NET: 71%
  Mean Specific Binding (dpm) ± S.E.M., NET: 294 ± 42 dpm
[4]; Rat IC50 (nM) rDAT
  IC50: 43 nM
[8]; 3 mg/kg
  Mouse Locomotor Activity Total Distance Traveled ± S.E.M.: 418.8 ± 80.6
[8]; 10 mg/kg
  Mouse Locomotor Activity Total Distance Traveled ± S.E.M.: 411.8 ± 87.8
[8]; 30 mg/kg
  Mouse Locomotor Activity Total Distance Traveled ± S.E.M.: 327.7 ± 67.1
[9]; 1 mg/kg
  % Transporter Occupancy, SERT: -6%
  Mean Specific Binding (dpm) ± S.E.M., SERT: 1508 ± 86 dpm
[9]; 3 mg/kg
  % Transporter Occupancy, SERT: -5%
  Mean Specific Binding (dpm) ± S.E.M., SERT: 1491 ± 75 dpm
[9]; 10 mg/kg
  % Transporter Occupancy, SERT: 0%
  Mean Specific Binding (dpm) ± S.E.M., SERT: 1416 ± 43 dpm
[9]; 30 mg/kg
  % Transporter Occupancy, SERT: 3%
  Mean Specific Binding (dpm) ± S.E.M., SERT: 1384 ± 101 dpm
[10]; 3 mg/kg
  Rat Locomotor Activity Total Distance Traveled ± S.E.M.: 1406.2 ± 84.9
[10]; 10 mg/kg
  Rat Locomotor Activity Total Distance Traveled ± S.E.M.: 1861.4 ± 187.8
[10]; 30 mg/kg
  Rat Locomotor Activity Total Distance Traveled ± S.E.M.: 2612.4 ± 210.8

## CN(C)C[C@]1(c2ccc3ccccc3c2)CC[C@](C)(O)CC1 [Compound 225, 4-((dimethylamino)methyl)-1-methyl-4-(naphthalen-2-yl)cyclohexanol]
[11]; 3 mg/kg
  Rat Forced Swim (Means ± S.E.M.) Climbing: 8.4 ± 1.7
  Rat Forced Swim (Means ± S.E.M.) Immobility: 50.8 ± 1.8
[11]; 10 mg/kg
  Rat Forced Swim (Means ± S.E.M.) Climbing: 11.1 ± 2.7
  Rat Forced Swim (Means ± S.E.M.) Immobility: 47.6 ± 3.0
  Rat Forced Swim (Means ± S.E.M.) Swimming: 1.2 ± 0.6
[11]; 30 mg/kg
  Rat Forced Swim (Means ± S.E.M.) Climbing: 25.0 ± 4.6
  Rat Forced Swim (Means ± S.E.M.) Immobility: 33.4 ± 4.8
  Rat Forced Swim (Means ± S.E.M.) Swimming: 1.1 ± 0.5
[1]
  IC50: 7 nM
[6]; 1 mg/kg
  % Transporter Occupancy, DAT: 3%
  Mean Specific Binding (dpm) ± S.E.M., DAT: 19787 ± 3338 dpm
[6]; 3 mg/kg
  % Transporter Occupancy, DAT: -6%
  Mean Specific Binding (dpm) ± S.E.M., DAT: 21666 ± 3698 dpm
[6]; 10 mg/kg
  % Transporter Occupancy, DAT: 8%
  Mean Specific Binding (dpm) ± S.E.M., DAT: 18872 ± 2775 dpm
[6]; 30 mg/kg
  % Transporter Occupancy, DAT: 29%
  Mean Specific Binding (dpm) ± S.E.M., DAT: 14618 ± 1209 dpm
[12]; 0.3 mg/kg
  Mouse Tail Suspension Mean Immobility Time ± S.E.M.: 188.1 ± 8.0
[12]; 1 mg/kg
  Mouse Tail Suspension Mean Immobility Time ± S.E.M.: 186.5 ± 5.2
[12]; 3 mg/kg
  Mouse Tail Suspension Mean Immobility Time ± S.E.M.: 158.5 ± 4.9 and 155.2 ± 6.0
[12]; 10 mg/kg
  Mouse Tail Suspension Mean Immobility Time ± S.E.M.: 137.8 ± 5.2
[12]; 30 mg/kg
  Mouse Tail Suspension Mean Immobility Time ± S.E.M.: 136.3 ± 2.5
[7]; 1 mg/kg
  % Transporter Occupancy, NET: 25%
  Mean Specific Binding (dpm) ± S.E.M., NET: 1170 ± 68 dpm
[7]; 3 mg/kg
  % Transporter Occupancy, NET: 48%
  Mean Specific Binding (dpm) ± S.E.M., NET: 813 ± 64 dpm
[7]; 10 mg/kg
  % Transporter Occupancy, NET: 75%
  Mean Specific Binding (dpm) ± S.E.M., NET: 393 ± 21 dpm
[7]; 30 mg/kg
  % Transporter Occupancy, NET: 85%
  Mean Specific Binding (dpm) ± S.E.M., NET: 230 ± 33 dpm
[8]; 0.3 mg/kg
  Mouse Locomotor Activity Total Distance Traveled ± S.E.M.: 519.5 ± 56.4
[8]; 1 mg/kg
  Mouse Locomotor Activity Total Distance Traveled ± S.E.M.: 423.4 ± 62.3
[8]; 10 mg/kg
  Mouse Locomotor Activity Total Distance Traveled ± S.E.M.: 234.2 ± 49.4
[8]; 30 mg/kg
  Mouse Locomotor Activity Total Distance Traveled ± S.E.M.: 177.4 ± 47.8
[9]; 1 mg/kg
  % Transporter Occupancy, SERT: 17%
  Mean Specific Binding (dpm) ± S.E.M., SERT: 3842 ± 152 dpm
[9]; 3 mg/kg
  % Transporter Occupancy, SERT: 54%
  Mean Specific Binding (dpm) ± S.E.M., SERT: 2118 ± 139 dpm
[9]; 10 mg/kg
  % Transporter Occupancy, SERT: 81%
  Mean Specific Binding (dpm) ± S.E.M., SERT: 904 ± 35 dpm
[9]; 30 mg/kg
  % Transporter Occupancy, SERT: 91%
  Mean Specific Binding (dpm) ± S.E.M., SERT: 414 ± 37 dpm
[10]; 3 mg/kg
  Rat Locomotor Activity Total Distance Traveled ± S.E.M.: 1783.4 ± 182.7
[10]; 10 mg/kg
  Rat Locomotor Activity Total Distance Traveled ± S.E.M.: 1628.5 ± 159.2
[10]; 30 mg/kg
  Rat Locomotor Activity Total Distance Traveled ± S.E.M.: 2182.8 ± 151.2

## COC1CCC(CN(C)C)(c2ccc(Cl)c(Cl)c2)CC1 (stereo not shown) [Compound 256, 1-(1-(3,4-dichlorophenyl)-4-methoxycyclohexyl)-N,N-dimethylmethanamine]
[1]
  IC50: 69 nM
[5]; read-out: Rat IC50 (nM) rSERT
  IC50: 280 nM
[2]
  IC50: 157 nM
[4]; read-out: Rat IC50 (nM) rDAT
  IC50: 990 nM

## CNC(C)C1(c2ccc3ccccc3c2)CCCCC1 (single isomer, unassigned) [58 E2, N-methyl-1-(1-(naphthalen-2-yl)cyclohexyl)ethanamine]
[5]; Rat IC50 (nM) rSERT
  IC50: 100 nM

## NCC1(c2cccc3ccccc23)CCCCC1 [Compound 12, (1-(naphthalen-1-yl)cyclohexyl)methanamine]
[5]; read-out: Rat IC50 (nM) rSERT
  IC50: 1100 nM
[4]; read-out: Rat IC50 (nM) rDAT
  IC50: 1900 nM

## CNC(C)C1(c2ccc3ccccc3c2)CCCCC1 (single isomer, unassigned) [58 E1, N-methyl-1-(1-(naphthalen-2-yl)cyclohexyl)ethanamine]
[5]; Rat IC50 (nM) rSERT
  IC50: 9.5 nM
[6]; 1 mg/kg
  % Transporter Occupancy, DAT: 7%
  Mean Specific Binding (dpm) ± S.E.M., DAT: 15732 ± 1360 dpm
[6]; 3 mg/kg
  % Transporter Occupancy, DAT: 11%
  Mean Specific Binding (dpm) ± S.E.M., DAT: 14938 ± 2613 dpm
[6]; 10 mg/kg
  % Transporter Occupancy, DAT: -2%
  Mean Specific Binding (dpm) ± S.E.M., DAT: 17215 ± 2151 dpm
[6]; 30 mg/kg
  % Transporter Occupancy, DAT: 24%
  Mean Specific Binding (dpm) ± S.E.M., DAT: 12876 ± 2152 dpm
[9]; 1 mg/kg
  % Transporter Occupancy, SERT: 5%
  Mean Specific Binding (dpm) ± S.E.M., SERT: 3245 ± 107 dpm
[9]; 3 mg/kg
  % Transporter Occupancy, SERT: 11%
  Mean Specific Binding (dpm) ± S.E.M., SERT: 3021 ± 182 dpm
[9]; 10 mg/kg
  % Transporter Occupancy, SERT: 47%
  Mean Specific Binding (dpm) ± S.E.M., SERT: 1799 ± 115 dpm
[9]; 30 mg/kg
  % Transporter Occupancy, SERT: 86%
  Mean Specific Binding (dpm) ± S.E.M., SERT: 469 ±43 dpm

## CNCC1(c2ccc(Cl)c(Cl)c2)CCCCC1.Cl [Compound 75, 1-(1-(3,4-dichlorophenyl)cyclohexyl)-N-methylmethanamine (hydrochloride)]
[12]; 3 mg/kg
  Mouse Tail Suspension Mean Immobility Time ± S.E.M.: 187.8 ± 9.6
[12]; 10 mg/kg
  Mouse Tail Suspension Mean Immobility Time ± S.E.M.: 177.7 ± 5.8
[12]; 30 mg/kg
  Mouse Tail Suspension Mean Immobility Time ± S.E.M.: 143.5 ± 5.8
[4]; Rat IC50 (nM) rDAT
  IC50: 58 nM
[8]; 3 mg/kg
  Mouse Locomotor Activity Total Distance Traveled ± S.E.M.: 653.5 ± 48.4
[8]; 10 mg/kg
  Mouse Locomotor Activity Total Distance Traveled ± S.E.M.: 608.8 ± 83.4
[8]; 30 mg/kg
  Mouse Locomotor Activity Total Distance Traveled ± S.E.M.: 655.3 ± 117.7
